Reference: ChEMBL document CHEMBL1828571, “Discovery of novel selective norepinephrine inhibitors: 1-(2-morpholin-2-ylethyl)-3-aryl-1,3-dihydro-2,1,3-benzothiadiazole 2,2-dioxides (WYE-114152)” (J Med Chem, 2011)
The source made the active and inactive calls.

Experiments:
[1] = target: T1, Sodium-dependent noradrenaline transporter (Homo sapiens, UniProt P23975); assay: biochemical
[2] = target: T2, Sodium-dependent serotonin transporter (Homo sapiens, UniProt P31645); assay type: cell-based, JAR
Target sequence in this assay (P31645 whole entry): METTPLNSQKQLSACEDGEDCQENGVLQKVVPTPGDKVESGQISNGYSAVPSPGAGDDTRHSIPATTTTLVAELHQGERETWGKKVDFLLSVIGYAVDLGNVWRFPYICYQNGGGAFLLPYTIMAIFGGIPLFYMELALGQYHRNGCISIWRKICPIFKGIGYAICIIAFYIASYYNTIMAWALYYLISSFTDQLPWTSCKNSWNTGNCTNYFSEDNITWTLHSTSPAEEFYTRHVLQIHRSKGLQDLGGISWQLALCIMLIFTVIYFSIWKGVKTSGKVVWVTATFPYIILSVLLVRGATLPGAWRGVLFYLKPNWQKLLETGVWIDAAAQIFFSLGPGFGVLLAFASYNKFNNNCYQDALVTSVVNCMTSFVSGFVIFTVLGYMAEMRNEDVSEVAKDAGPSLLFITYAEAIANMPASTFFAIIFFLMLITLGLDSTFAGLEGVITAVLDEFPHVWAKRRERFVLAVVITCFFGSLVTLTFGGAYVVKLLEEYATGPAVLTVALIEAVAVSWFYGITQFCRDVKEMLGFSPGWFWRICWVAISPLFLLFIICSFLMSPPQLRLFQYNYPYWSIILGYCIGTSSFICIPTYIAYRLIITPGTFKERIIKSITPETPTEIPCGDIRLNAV

[3] = target: T3, Sodium-dependent dopamine transporter (Homo sapiens, UniProt Q01959); assay: biochemical
[4] = tested on: Rattus norvegicus; assay: Analgesic activity in Sprague-Dawley rat thermally-stimulated acute pain model assessed as increase in latency to nocicfensive response at 10 mg/kg, po after 1 to 5 hrs by hot plate assay; assay type: functional, organism-based; parameters: dose 10 mg/kg
[5] = target: T1, Sodium-dependent noradrenaline transporter
[6] = Cmax in rat at 10 mg/kg, po; assay type: ADME, organism-based; parameters: dose 10 mg/kg, route oral; details: in vivo
[7] = AUC (0 to infinity) in rat at 2 mg/kg, iv; assay type: ADME, organism-based; parameters: time infinity, dose 2 mg/kg, route intravenous; details: plasma
[8] = tested on: Rattus norvegicus; assay: Analgesic activity against carrageenan-induced hyperalgesia in Sprague-Dawley rat assessed as increase in paw withdrawal latency at 30 mg/kg, po after 4 hrs carrageenan challenge; assay type: functional, organism-based; parameters: dose 30 mg/kg
[9] = Oral bioavailability in rat at 10 mg/kg; assay type: ADME, organism-based; details: in vivo
[10] = tested on: Rattus norvegicus; assay: Analgesic activity in Sprague-Dawley rat thermally-stimulated acute pain model assessed as increase in latency to nocicfensive response at 30 mg/kg, po after 1 to 5 hrs by hot plate assay; assay type: functional, organism-based; parameters: dose 30 mg/kg
[11] = species on record: Homo sapiens; assay: Selectivity ratio of IC50 for human NET over IC50 for human DAT
[12] = tested on: Rattus norvegicus; assay: Analgesic activity against FCA-induced mechanical hyperalgesia in Sprague-Dawley rat assessed as threshold to paw withdrawal at 3 mg/kg, po administered 24 hrs after FCA challenge measured after 3 hrs; assay type: functional, organism-based; parameters: dose 3 mg/kg
[13] = Half life in rat at 10 mg/kg, po; assay type: ADME, organism-based; parameters: dose 10 mg/kg, route oral; details: in vivo
[14] = species on record: Homo sapiens; assay: Selectivity ratio of IC50 for human NET over IC50 for human SERT
[15] = tested on: Rattus norvegicus; assay: Analgesic activity against carrageenan-induced hyperalgesia in Sprague-Dawley rat assessed as increase in paw withdrawal latency at 10 mg/kg, po after 4 hrs carrageenan challenge; assay type: functional, organism-based; parameters: dose 10 mg/kg
[16] = Half life in rat at 2 mg/kg, iv; assay type: ADME, organism-based; parameters: dose 2 mg/kg, route intravenous; details: in vivo
[17] = Plasma clearance in rat at 2 mg/kg, iv; assay type: ADME, organism-based; parameters: dose 2 mg/kg, route intravenous
[18] = Ratio of drug level in brain to plasma in rat; assay type: ADME; details: read-out: BPR
[19] = tested on: Rattus norvegicus; assay: Increase of serotonin level in Sprague-Dawley rat medial prefrontal cortex at 30 mg/kg, po by microdialysis assay; assay type: functional, organism-based; parameters: dose 30 mg/kg
[20] = tested on: Rattus norvegicus; assay: Analgesic activity against FCA-induced mechanical hyperalgesia in Sprague-Dawley rat assessed as threshold to paw withdrawal at 3 mg/kg, po administered 24 hrs after FCA challenge measured after 5 hrs; assay type: functional, organism-based; parameters: dose 3 mg/kg
[21] = tested on: Rattus norvegicus; assay: Analgesic activity against spinal nerve ligation-induced mechanical hyperalgesia in po dosed Sprague-Dawley rat assessed as threshold to paw withdrawal; assay type: functional, organism-based
[22] = AUC (0 to infinity) in rat at 10 mg/kg, po; assay type: ADME, organism-based; parameters: time infinity, dose 10 mg/kg, route oral; details: plasma
[23] = Tmax in rat at 10 mg/kg, po; assay type: ADME, organism-based; parameters: dose 10 mg/kg, route oral; details: in vivo
[24] = Volume of distribution at steady state in rat at 2 mg/kg, iv; assay type: ADME, organism-based; parameters: dose 2 mg/kg, route intravenous; details: in vivo, read-out: Vdss
[25] = tested on: Rattus norvegicus; assay: Increase of norepinephrine level in Sprague-Dawley rat medial prefrontal cortex at 30 mg/kg, po by microdialysis assay relative to baseline; assay type: functional
[26] = target: T3, Sodium-dependent dopamine transporter; assay: Displacement of [3H]-WIN-35428 from human DAT expressed in CHO cells at 1 uM; assay type: cell-based
[27] = target: T2, Sodium-dependent serotonin transporter; assay: Inhibition of human SERT expressed in JAR cells assessed as serotonin uptake at 6 uM; assay type: cell-based
Target sequence in this assay (P31645 whole entry, looked up): as the sequence (P31645 whole entry) above

T3 sequence (Q01959 whole entry): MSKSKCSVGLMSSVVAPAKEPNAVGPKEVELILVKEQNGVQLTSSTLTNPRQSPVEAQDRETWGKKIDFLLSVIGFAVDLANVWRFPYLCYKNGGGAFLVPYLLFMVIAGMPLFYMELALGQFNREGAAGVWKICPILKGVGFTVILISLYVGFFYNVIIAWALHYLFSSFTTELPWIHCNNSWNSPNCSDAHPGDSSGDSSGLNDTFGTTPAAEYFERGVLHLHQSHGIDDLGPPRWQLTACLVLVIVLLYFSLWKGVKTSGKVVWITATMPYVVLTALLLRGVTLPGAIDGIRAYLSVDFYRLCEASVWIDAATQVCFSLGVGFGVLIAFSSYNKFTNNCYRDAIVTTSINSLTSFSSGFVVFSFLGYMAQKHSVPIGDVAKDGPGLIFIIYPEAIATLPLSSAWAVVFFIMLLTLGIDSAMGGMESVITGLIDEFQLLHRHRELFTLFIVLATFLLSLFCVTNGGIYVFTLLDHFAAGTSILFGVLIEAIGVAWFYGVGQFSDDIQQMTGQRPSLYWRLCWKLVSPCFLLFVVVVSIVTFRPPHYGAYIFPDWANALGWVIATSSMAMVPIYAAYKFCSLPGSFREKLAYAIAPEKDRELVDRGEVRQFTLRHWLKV
T1 sequence (P23975 whole entry): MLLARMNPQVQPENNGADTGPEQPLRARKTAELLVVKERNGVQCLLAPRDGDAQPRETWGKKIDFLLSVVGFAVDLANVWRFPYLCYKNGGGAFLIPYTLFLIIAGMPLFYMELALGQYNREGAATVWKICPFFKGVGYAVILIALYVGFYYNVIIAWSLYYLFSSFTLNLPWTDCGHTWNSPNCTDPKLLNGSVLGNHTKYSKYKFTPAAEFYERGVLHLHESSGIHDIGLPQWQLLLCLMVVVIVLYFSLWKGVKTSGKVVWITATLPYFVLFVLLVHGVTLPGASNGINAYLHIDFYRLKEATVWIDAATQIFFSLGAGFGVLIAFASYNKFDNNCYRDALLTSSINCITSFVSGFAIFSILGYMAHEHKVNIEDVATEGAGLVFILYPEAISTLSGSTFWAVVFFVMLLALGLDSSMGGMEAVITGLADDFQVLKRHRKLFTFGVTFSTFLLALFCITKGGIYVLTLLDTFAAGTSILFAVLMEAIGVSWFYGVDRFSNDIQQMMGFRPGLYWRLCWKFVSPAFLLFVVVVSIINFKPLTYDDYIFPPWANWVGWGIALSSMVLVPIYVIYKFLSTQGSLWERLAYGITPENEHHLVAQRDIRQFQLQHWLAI

O=S1(=O)N(CC[C@@H]2CNCCO2)c2ccccc2N1c1c(F)cc(F)cc1F
IC50 [1]: 80 nM | IC50 [2]: 1400 nM

O=S1(=O)N(C[C@@H]2CNCCO2)c2ccccc2N1c1ccccc1
IC50 [3]: 792 nM

O=S1(=O)N(CC[C@@H]2CNCCO2)c2ccccc2N1c1ccccc1F
Activity [4]: Active | IC50 [5]: 15 nM | Cmax [6]: 373 ng/mL | AUC(0-inf) [7]: 958 ng·h/mL | Activity [8]: Active | bioavailability [9]: 28% | Activity [10]: Active | Ratio IC50 [11]: > 548 | Activity [12]: Active | half-life [13]: 108 min | Ratio IC50 [14]: > 430 | IC50 [1]: 5 nM | Activity [15]: Active | half-life [16]: 108 min | clearance [17]: 38 mL/min/kg | Kp [18]: 3.9 | Activity [19]: inactive | Activity [20]: Active | Activity [21]: Dose-dependent effect | AUC(0-inf) [22]: 1320 ng·h/mL | IC50 [2]: 6410 nM | Tmax [23]: 1 h | Vd [24]: 5 L/kg | Activity [25]: 390%

O=S1(=O)N(CCC2CNCCO2)c2cc(F)ccc2N1c1ccccc1F (configuration not stated)
IC50 [5]: 14 nM | IC50 [1]: 8 nM | inhibition [26]: 43% | IC50 [2]: 8350 nM

O=S1(=O)N(CCC2CNCCO2)c2ccccc2N1c1ccccc1 (racemic)
IC50 [1]: 7 nM | IC50 [3]: 964 nM | IC50 [2]: 1780 nM

CN1CCOC(CN2c3ccccc3N(c3ccccc3)S2(=O)=O)C1 (racemic)
IC50 [1]: 2300 nM | inhibition [26]: 77%

O=S1(=O)N(CC[C@@H]2CNCCO2)c2ccccc2N1c1ccc(F)cc1
IC50 [1]: 283 nM | IC50 [3]: 211 nM

O=S1(=O)N(CCC2CNCCO2)c2ccc(F)cc2N1c1ccccc1F (configuration not stated)
IC50 [5]: 120 nM | IC50 [1]: 209 nM | inhibition [26]: 23% | IC50 [2]: 806 nM

O=S1(=O)N(CC[C@@H]2CNCCO2)c2ccccc2N1c1ccccc1
inhibition [27]: 55% | IC50 [1]: 5 nM | IC50 [2]: 6770 nM

O=S1(=O)N(CCC2CCCNC2)c2ccccc2N1c1ccccc1 (racemic)
IC50 [5]: 54 nM | IC50 [1]: 30 nM | inhibition [26]: 95% | IC50 [2]: 2980 nM

O=S1(=O)N(CC[C@H]2CNCCO2)c2ccccc2N1c1ccccc1
inhibition [27]: 68% | IC50 [1]: 9 nM | IC50 [2]: 1030 nM

O=S1(=O)N(CCC2CNCCO2)c2c(F)cccc2N1c1ccccc1F (configuration not stated)
IC50 [5]: 22 nM | IC50 [1]: 5 nM | inhibition [26]: 50% | IC50 [2]: 992 nM

O=S1(=O)N(C[C@H]2CNCCO2)c2ccccc2N1c1ccccc1
IC50 [3]: 341 nM

CNC[C@@H](CCN1c2ccccc2N(c2ccccc2)S1(=O)=O)OC
IC50 [1]: 13 nM | inhibition [26]: 39% | IC50 [2]: 5100 nM

O=S1(=O)N(CC[C@@H]2CNCCO2)c2ccccc2N1c1ccc(F)cc1F
IC50 [1]: 143 nM | IC50 [3]: 2040 nM | IC50 [2]: 4130 nM

CNC[C@H](O)CCN1c2ccccc2N(c2ccccc2F)S1(=O)=O
inhibition [27]: 28%

O=S1(=O)N(CC2CNCCO2)c2ccccc2N1c1ccccc1 (racemic)
IC50 [5]: 147 nM | inhibition [27]: 0% | IC50 [1]: 74 nM | inhibition [26]: 32%

O=S1(=O)N(CCC2CNCCO2)c2cccc(F)c2N1c1ccccc1F (configuration not stated)
IC50 [5]: 7 nM | IC50 [1]: 13 nM | inhibition [26]: 20% | IC50 [2]: 5790 nM

CNC[C@H](CCN1c2ccccc2N(c2ccccc2)S1(=O)=O)OC
inhibition [27]: 52% | IC50 [1]: 103 nM | IC50 [3]: 1040 nM

COc1cccc(N2c3ccccc3N(CC[C@@H]3CNCCO3)S2(=O)=O)c1
IC50 [1]: 99 nM | IC50 [2]: 749 nM
